Test results reported in patent publication US5607967A, “Treatment of alzheimer's disease with 5-(tetradecyloxy)-2-furan carboxylic acid” (Merck & Co., Inc., priority 1994, dated 1997).
Like-named read-outs stand apart in the source and are kept apart here.

Legend:
[1] = test system: reporter gene under the control of the promoter of SV40; assay: Luciferase expression with reporter gene under control of the SV40 promoter; type: cell-based
GR/NER chimeric receptor = assay: Activation of GR/NER in COS-7 cells (luciferase); conditions: 1440 min
Description: The ligand dependent transcription assays were performed as described in Example 4. The transfected COS cells were treated with dopamine, TOFA, or with the combination of TOFA and dopamine at the indicated concentrations and tested for luciferase activity.

[2] = target: T1, GR/PPAR chimeric receptor (Mus musculus, UniProt P23204); assay: Ligand dependent transcription assay, GR/PPAR chimeric receptor with MMTV-luciferase reporter; type: cell-based
T1 construct: COS cells, MMTV-luciferase
T1 sequence (P23204 1-468): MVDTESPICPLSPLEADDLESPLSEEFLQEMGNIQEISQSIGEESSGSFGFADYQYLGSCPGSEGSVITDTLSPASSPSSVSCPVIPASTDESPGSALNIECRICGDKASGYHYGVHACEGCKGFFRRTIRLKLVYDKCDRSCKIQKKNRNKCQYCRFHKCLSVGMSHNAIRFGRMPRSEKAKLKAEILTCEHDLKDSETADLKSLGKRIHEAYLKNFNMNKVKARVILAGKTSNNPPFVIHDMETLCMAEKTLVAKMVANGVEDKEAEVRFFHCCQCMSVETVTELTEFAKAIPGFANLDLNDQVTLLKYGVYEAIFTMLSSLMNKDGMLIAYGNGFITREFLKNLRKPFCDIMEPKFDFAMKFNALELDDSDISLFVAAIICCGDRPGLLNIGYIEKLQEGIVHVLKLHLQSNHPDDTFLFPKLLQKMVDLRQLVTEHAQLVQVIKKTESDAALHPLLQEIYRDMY
T1 sequence (P06537 1-792 partner): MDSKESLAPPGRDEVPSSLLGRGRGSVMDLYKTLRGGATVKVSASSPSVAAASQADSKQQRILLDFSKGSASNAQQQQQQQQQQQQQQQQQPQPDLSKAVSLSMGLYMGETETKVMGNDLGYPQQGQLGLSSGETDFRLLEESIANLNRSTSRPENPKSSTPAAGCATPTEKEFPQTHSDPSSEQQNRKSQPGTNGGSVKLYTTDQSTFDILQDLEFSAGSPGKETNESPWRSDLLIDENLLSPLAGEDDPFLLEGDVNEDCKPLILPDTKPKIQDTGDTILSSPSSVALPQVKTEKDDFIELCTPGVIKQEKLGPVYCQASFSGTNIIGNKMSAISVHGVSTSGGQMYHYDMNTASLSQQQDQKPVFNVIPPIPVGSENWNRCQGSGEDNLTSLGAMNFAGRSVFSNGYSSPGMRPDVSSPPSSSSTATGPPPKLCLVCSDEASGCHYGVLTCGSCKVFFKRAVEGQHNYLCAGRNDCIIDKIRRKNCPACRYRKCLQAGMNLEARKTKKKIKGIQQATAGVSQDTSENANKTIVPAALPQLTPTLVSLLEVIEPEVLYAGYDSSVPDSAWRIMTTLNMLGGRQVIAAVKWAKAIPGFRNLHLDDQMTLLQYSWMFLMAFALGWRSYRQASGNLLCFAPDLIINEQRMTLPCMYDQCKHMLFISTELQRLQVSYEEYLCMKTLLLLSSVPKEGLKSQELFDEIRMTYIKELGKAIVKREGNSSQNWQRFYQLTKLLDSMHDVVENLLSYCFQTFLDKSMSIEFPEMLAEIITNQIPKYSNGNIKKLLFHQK
Description: Similar hybrid receptors GR/NER, GR/NUC and GR/PPAR, in identical expression plasmid backgrounds were prepared essentially as described for the construction of the GR/mPPAR and GR/NUC chimeric receptors in Schmidt et al., "Identification of a new member of the steroid hormone receptor superfamily that is activated by a peroxisome proliferator and fatty acids," Mol. Endocrinol., 6(10):1634-41, 1992, and in Boie et al., "Enantioselective activation of the peroxisome proliferator-activated receptor", J. Biol. Chem. 268(8):5530-4, 1993.
Briefly, the amino terminal portion of the mouse glucocorticoid receptor (mGR), that includes the DNA binding domain was fused to the putative ligand binding domains of the nuclear receptor NER, hNUC-I (Schmidt et al., 1992), mPPAR (Issenmann and Green, 1990) to form the respective chimeric receptors GR/NER, GR/NUC and GR/PPAR. The GR/NER chimeric receptor was constructed as described for the GR/NUC and GR/PPAR hybrid receptors (Schmidt et al., 1992; Boie et al). The cDNA sequences coding for amino acids Arg^155 and Glu^156 of the NER receptor were converted to the Xho I restriction site, that was later used for the ligation to the GR cDNA sequences that coded for the DNA binding domain. Thus, converting amino acid residues Arg^155 and Glu^156 of NER receptor to amino acid residues Ser^155 and His^156.
The ligand transcription assay mediated by GR/PPAR in COS cells was performed as described in Example 4. The cells were treated with TOFA and Cerulenin at 0.1, 1, 10 and 100 μM.

[3] = test system: MMTV-luciferase reporter gene; assay: Luciferase expression in cells transfected only with the MMTV-luciferase reporter gene; type: cell-based; conditions: no receptor transfected
Description: Transient transfection of COS and CV1 cells was performed as described (Schmidt 1992). Cells were plated (1.5×10^5 in 1 mL) into 12 well dishes in phenol red-free medium supplemented with activated charcoal treated fetal calf serum. The next day 0.12 mL of DNA 10 μg/ml (5 μg receptor DNA and 5 μg reporter plasmid), as a calcium phosphate precipitate, was added to the cells. Ligands were added to the cells 30 minutes after transfection. The next day (18 hours), the cells were washed and fresh ligands added. Twenty-four hours later, cell extracts were prepared and assayed for luciferase enzyme activity using the luciferase assay system (Promega Madison, Wis.). Each transfection was performed in triplicate and the luciferase activity of each sample measured in duplicate using the AutoClinilumat (Berthold Nashua, N.H.).

[4] = COS, read-out: Fold of stimulation GR/PPAR

SMILES: CCCCCCCCCCCCCCOc1ccc(C(=O)O)o1 [TOFA, 5-(tetradecyloxy)-2-furan carboxylic acid]
- Expression of luciferase, reporter under SV40 promoter [1]: did not stimulate the expression of luciferase
- Fold of stimulation GR/NER (GR/NER chimeric receptor; TOFA 10 μM with dopamine 100 μM): 3.24 ± 0.06 fold
- Fold of stimulation GR/NER (GR/NER chimeric receptor; TOFA 100 μM with dopamine 100 μM): 2.85 ± 0.07 fold
- Fold of stimulation GR/NER (GR/NER chimeric receptor; TOFA 100 μM, no dopamine): 3.36 ± 0.04 fold
- Expression mediated by GR/PPAR [2]: stimulated expression
- fold induction at 0.1 µM [2, 4]: 1.04 ± 0.14
- fold induction at 1 µM [2, 4]: 2.38 ± 0.16
- fold induction at 10 µM [2, 4]: 4.43 ± 0.23
- fold induction at 100 µM [2, 4]: 4.1 ± 0.52
- fold induction at 10 µM ([2]; read-out: Fold of stimulation GR/PPAR): 4.08 ± 0.1
- Expression of luciferase, MMTV-luciferase reporter gene only [3]: did not stimulate the expression of luciferase
